According to the NIST ThermoML archive (doi:10.1007/s10765-016-2150-1):

Conditions: Liquid, Oscillating viscometer

O=[N+]([O-])[O-].[Li+] [lithium nitrate]
Conditions	viscosity [mPa·s]
544.9 K	5.15
554.5 K	4.457
571.7 K	4.195
592.1 K	3.854
595.9 K	3.618
597 K	3.72
601.3 K	3.549
603.3 K	3.373
619.2 K	3.075
623.2 K	3.024
627.2 K	3.04
662.7 K	2.448
688.8 K	2.169
689.2 K	2.094
